Values quoted from earlier work in US10827752B2, “Disinfectant composition” (priority 2010, dated 2020).
Entries after “also recorded” stand apart in the source; their conditions may differ.

Test system: spores
Conditions: approximately 2500 ppm of peracetic acid

CC(=O)OO [peracetic acid]
sporicidal action: excellent sporicidal action; also recorded: excellent sporicidal results
